The source of these data is ChEMBL document CHEMBL1201862, “PubChem BioAssay data set” (2004).

Some test systems named below: SF-268; PC-3; BT-549; HCT-116; NCI/ADR-RES; NCI-H226; LOX IMVI; SNB-75; NCI-H460; UACC-257; A549; SK-MEL-5; OVCAR-5; SNB-19; HL-60; T47D; SF-539; MDA-N; CAKI-1.
Experiment in all cases: NCI-60 cell line screen, 48 h

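Method: 48-hour compound exposure of cells in 96-well plates, five concentrations, linear interpolation of endpoints. GI50: concentration for 50% inhibition of growth.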 Activity calls are given as the source filed them. Cut-off read from the data, not from the text of the source: active = GI50 up to about 1.1 µM and inactive = higher. Residues, ends and D or L forms follow the SMILES beside them. *: point of attachment. Boc = CC(C)(C)OC(=O)*

`Cn1ccnc1Oc1ccc(Cl)cc1`: the GI50 in the assay on SF-268 was 28.5 µM (inactive); in the assay on PC-3, 14.3 µM (inactive); with BT-549 it was 16.9 µM (inactive); in the assay with HCT-116, 12 µM (inactive); in the assay with NCI/ADR-RES, 16.7 µM (inactive); in the assay on NCI-H226 it was 13 µM (inactive). The GI50 in the assay with LOX IMVI was 13.2 µM (inactive); in the assay with SNB-75 it was 14.7 µM (inactive); in the assay with NCI-H460, 30.3 µM (inactive); in the assay with UACC-257, 9.75 µM (inactive); in the assay with A549, 34.2 µM (inactive); in the assay with SK-MEL-5 it was 14.1 µM (inactive). Further, the GI50 was 15.6 µM (inactive) in the assay with OVCAR-5; 33 µM (inactive) with SNB-19; 0.631 µM (active) in the assay on HL-60; 2.18 µM (inactive) with T47D; 11.9 µM (inactive) with SF-539.
Take `COC(=O)C(Cc1c[nH]c2ccccc12)NC(=O)C(Cc1c[nH]c2ccccc12)NC(=O)C(Cc1c[nH]c2ccccc12)NC(=O)C(Cc1c[nH]c2ccccc12)NC(=O)C(Cc1c[nH]c2ccccc12)NC(=O)C(Cc1c[nH]c2ccccc12)NC(=O)OC(C)(C)C` (stereo not drawn) (Boc-WWWWWW-OMe; configuration not given here): the GI50 in the assay on SF-268 was 50.4 µM (inactive); in the assay with PC-3, 52.5 µM (inactive); in the assay on BT-549 it was 44 µM (inactive); in the assay with MDA-N, 41.6 µM (inactive); with HCT-116, 37.3 µM (inactive); in the assay on NCI-H226 it was 64 µM (inactive). The GI50 in the assay on LOX IMVI is 38.1 µM (inactive); in the assay on SNB-75 it was 46 µM (inactive); with NCI-H460 it was > 100 µM (inactive); with UACC-257, 30.3 µM (inactive); with A549 it was 31.7 µM (inactive); in the assay with SK-MEL-5, 19.3 µM (inactive). The GI50 in the assay with CAKI-1 is > 100 µM (inactive); with OVCAR-5, > 100 µM (inactive); in the assay on SNB-19 it was 47.3 µM (inactive); in the assay on HL-60 it was > 100 µM (inactive); in the assay on T47D it was 22.2 µM (inactive).
Regarding `CCC(C)[C@H](NC(=O)[C@H](Cc1ccccc1)NC(=O)N(CC)c1ccccc1)C(=O)N[C@@H](CC(C)C)C(=O)OC` (stereo partly drawn), the GI50 in the assay with SF-268 was 36.5 µM (inactive); with PC-3, 35.3 µM (inactive); with BT-549 it was 33.5 µM (inactive); in the assay on MDA-N, 45.1 µM (inactive); in the assay with HCT-116 it was 32.4 µM (inactive); in the assay with NCI/ADR-RES, > 100 µM (inactive). Also, the GI50 with NCI-H226 was 18 µM (inactive); in the assay on LOX IMVI, 30.9 µM (inactive); with SNB-75, 70.5 µM (inactive); in the assay with UACC-257, 24.9 µM (inactive); with A549 it was 52.5 µM (inactive); in the assay with SK-MEL-5 it was 26.7 µM (inactive). In addition, the GI50 with CAKI-1 is 58.5 µM (inactive); in the assay with OVCAR-5 it was > 100 µM (inactive); in the assay with SNB-19, 35.4 µM (inactive); in the assay with T47D it was 43.5 µM (inactive); in the assay with SF-539, 24.2 µM (inactive).
As for `COC(=O)C1=C(C(=O)OC)SC(=C2c3ccsc3-c3sccc32)S1`, the GI50 in the assay on SF-268 was 19.9 µM (inactive); with PC-3, 47 µM (inactive); with BT-549, 29.4 µM (inactive); in the assay on MDA-N, 70.3 µM (inactive); with HCT-116, 25.9 µM (inactive); in the assay on NCI/ADR-RES it was 62.8 µM (inactive). Also, the GI50 is 27.4 µM (inactive) with NCI-H226; > 100 µM (inactive) in the assay on LOX IMVI; 15.9 µM (inactive) in the assay with SNB-75; > 100 µM (inactive) in the assay with NCI-H460; 64.4 µM (inactive) with UACC-257; 37.2 µM (inactive) with A549. The GI50 was 31.9 µM (inactive) in the assay with SK-MEL-5; > 100 µM (inactive) in the assay with CAKI-1; > 100 µM (inactive) with OVCAR-5; 67.6 µM (inactive) in the assay with SNB-19; 24 µM (inactive) in the assay with HL-60; 20.7 µM (inactive) in the assay with SF-539.
On to `O=c1[nH]nc(Cc2ccc(Cl)cc2)n1Nc1ccccc1`, for which the GI50 in the assay with PC-3, in the assay with BT-549, with MDA-N, in the assay with HCT-116, in the assay with NCI/ADR-RES and with NCI-H226 was > 100 µM (inactive) throughout. Besides, the GI50 in the assay with LOX IMVI was > 100 µM (inactive); with SNB-75, 48.8 µM (inactive); in the assay on NCI-H460, > 100 µM (inactive); in the assay on UACC-257, > 100 µM (inactive); in the assay on A549, > 100 µM (inactive); in the assay with SK-MEL-5, > 100 µM (inactive). The GI50 in the assay on CAKI-1 was > 100 µM (inactive); in the assay with OVCAR-5 it was > 100 µM (inactive); in the assay with SNB-19, > 100 µM (inactive); in the assay on T47D, > 100 µM (inactive); in the assay with SF-539 it was 80 µM (inactive).
For `NC(Cc1ccccc1)(C(=O)O)C(=O)O`, the GI50 with SF-268, with PC-3, in the assay on BT-549, in the assay on MDA-N, in the assay on HCT-116 and in the assay on NCI/ADR-RES was > 100 µM (inactive) in each case. Besides, the GI50 in the assay with NCI-H226, in the assay with LOX IMVI, in the assay on NCI-H460, in the assay on UACC-257, in the assay on A549 and with SK-MEL-5 was > 100 µM (inactive) each time. In addition, the GI50 is 14.8 µM (inactive) in the assay on CAKI-1; > 100 µM (inactive) in the assay with OVCAR-5; > 100 µM (inactive) in the assay on SNB-19; > 100 µM (inactive) in the assay with T47D; > 100 µM (inactive) in the assay with SF-539.
Turning to `CC1(C)[C@H]2CC[C@]1(C)[C@H](OC(=O)NNC(=O)O[C@@H]1C[C@@H]3CC[C@@]1(C)C3(C)C)C2`, the GI50 with SF-268 is 15.6 µM (inactive); with BT-549, 19.7 µM (inactive); with MDA-N, 11.6 µM (inactive); in the assay on HCT-116, 10.9 µM (inactive); with NCI-H226, 16.7 µM (inactive); with LOX IMVI, 26.7 µM (inactive). Also, the GI50 with SNB-75 was 13.6 µM (inactive); in the assay with NCI-H460, 13.7 µM (inactive); in the assay on UACC-257, 16.3 µM (inactive); with A549, 10.4 µM (inactive); with SK-MEL-5 it was 12.6 µM (inactive); in the assay with CAKI-1, 15.5 µM (inactive). Moreover, the GI50 with OVCAR-5 was 17.5 µM (inactive); with SNB-19 it was 19.5 µM (inactive); in the assay on HL-60, 7.01 µM (inactive); with T47D, 7.1 µM (inactive); in the assay on SF-539, 14.4 µM (inactive).
On to `O=C(Nc1ccc(C(F)(F)F)cc1[N+](=O)[O-])c1cccnc1`, for which the GI50 with SF-268 was 4.07 µM (inactive); with BT-549, 7.06 µM (inactive); in the assay on HCT-116, 7.24 µM (inactive); in the assay with NCI/ADR-RES it was 6.9 µM (inactive); in the assay with NCI-H226, 22.8 µM (inactive); with LOX IMVI, 7.31 µM (inactive). For the same compound, the GI50 is 3.72 µM (inactive) with SNB-75; 3.15 µM (inactive) in the assay on NCI-H460; 5.71 µM (inactive) with UACC-257; 6.75 µM (inactive) with A549; 4.06 µM (inactive) with SK-MEL-5; 2.81 µM (inactive) with CAKI-1. For the same compound, the GI50 was 73.5 µM (inactive) in the assay with OVCAR-5; 9.48 µM (inactive) with SNB-19; 3.72 µM (inactive) with HL-60; > 100 µM (inactive) with T47D; 3.37 µM (inactive) in the assay on SF-539.
For `O=C(Cc1csc(N/N=C2\C(=O)Nc3ccccc32)n1)Nc1ccccc1`, the GI50 is 17.7 µM (inactive) in the assay with SF-268; 41.7 µM (inactive) with BT-549; 21.4 µM (inactive) with HCT-116; 20 µM (inactive) in the assay with NCI/ADR-RES; 10 µM (inactive) with NCI-H226; 46.5 µM (inactive) in the assay on LOX IMVI. Further, the GI50 in the assay with SNB-75 was 28.5 µM (inactive); in the assay on NCI-H460, 31.6 µM (inactive); with UACC-257, 25 µM (inactive); in the assay on A549 it was 39.9 µM (inactive); in the assay on SK-MEL-5, 15.3 µM (inactive); with CAKI-1 it was 23.3 µM (inactive). The GI50 was > 100 µM (inactive) with OVCAR-5; 26.9 µM (inactive) with SNB-19; 37.1 µM (inactive) in the assay with HL-60; 28.4 µM (inactive) in the assay with T47D; 26.4 µM (inactive) in the assay on SF-539.
In the case of `C=C1c2nc3ccccc3n2C=C(c2ccccc2)N1c1ccc(OC)cc1`, the GI50 in the assay with PC-3 is 19.1 µM (inactive); in the assay with BT-549, 13.5 µM (inactive); with MDA-N, 49.9 µM (inactive); in the assay with HCT-116, 17.5 µM (inactive); in the assay with NCI/ADR-RES it was 17.7 µM (inactive); in the assay on NCI-H226 it was 11 µM (inactive). Moreover, the GI50 with LOX IMVI was 50 µM (inactive); with SNB-75, 3.68 µM (inactive); with NCI-H460, 11.7 µM (inactive); in the assay with UACC-257 it was 31.8 µM (inactive); in the assay on A549 it was 18.5 µM (inactive); in the assay on SK-MEL-5, 11.1 µM (inactive). Besides, the GI50 is 25.5 µM (inactive) in the assay with CAKI-1, 43.7 µM (inactive) in the assay with OVCAR-5, 29.8 µM (inactive) in the assay with HL-60 and 14 µM (inactive) in the assay with SF-539.
With `COc1ccc([S+]([O-])Cc2cc(OC)c(OC)c(OC)c2)cc1` (stereo not drawn), the GI50 in the assay with SF-268 is 97.5 µM (inactive); with PC-3, > 100 µM (inactive); with BT-549, 46.7 µM (inactive); in the assay on HCT-116, 40.4 µM (inactive); with NCI/ADR-RES, 40.7 µM (inactive); in the assay with NCI-H226 it was > 100 µM (inactive). For the same compound, the GI50 in the assay on LOX IMVI is 91.6 µM (inactive); in the assay on SNB-75, 45.4 µM (inactive); in the assay on NCI-H460, 33.2 µM (inactive); in the assay with UACC-257 it was > 100 µM (inactive); with A549, 49.1 µM (inactive); in the assay with SK-MEL-5, 29.6 µM (inactive). The GI50 in the assay with CAKI-1 was 56.9 µM (inactive); with OVCAR-5, 42.9 µM (inactive); in the assay with SNB-19, 69.7 µM (inactive); with HL-60 it was > 10 µM (inactive); in the assay with T47D, > 100 µM (inactive); in the assay with SF-539 it was 56.5 µM (inactive).
